Source: patent publication US20080295189A1, “Construction of Arterial Occlusive Disease Animal Model” (JAPAN HEALTH SCIENCES FOUNDATION, priority 2004, published 2008)

System: blood of a crab-eating macaque
Assay: Degree of coagulation of blood with coagulating agents (autologous blood clot formation)
Details: blood in catheter, incubated 24 hours at 37° C., versus blood coagulated alone
Procedure: As coagulating agents, ADP and thrombin were used to examine the degree of coagulation. ADP was used at concentrations of 30 and 100 μg/ml (without thrombin at both concentrations), and thrombin at concentrations of 0.5 and 10% (w/v) (without ADP at both concentrations). Blood was drawn from the ventral tail artery of a crab-eating macaque, and was placed into a catheter with or without adding a coagulating agent, incubated for 24 hours at 37° C., and then pushed out to observe the condition of coagulation. As control was used a sample to which neither of the coagulating agents was added (blood which was coagulated alone). The results were shown in the left panel of FIG. 3. […] Next, a blood clot which was obtained by incubating blood for 24 hours at 37° C. with 100 μg of ADP and 10% (w/v) of thrombin was immersed in a povidone-iodine solution, followed by X-ray photography. As shown in the right panel of FIG. 3, there was observed a shade corresponding to the blood clot, allowing one to identify the location of a blood clot be means of an X-ray photographic apparatus.

Nc1ncnc2c1ncn2[C@@H]1O[C@H](COP(=O)(O)OP(=O)(O)O)[C@@H](O)[C@H]1O [ADP, adenosine diphosphate]
condition of coagulation (ADP 30 and 100 μg/ml without thrombin): the higher concentration of ADP, the better coagulation took place

Thrombin
condition of coagulation (thrombin 0.5 and 10% (w/v) without ADP): comparable coagulation at both 0.5 and 10% (w/v)
